Results on 1 compound are retold here after PMC8092876, “A Leucyl-tRNA Synthetase Inhibitor with Broad-Spectrum Antimycobacterial Activity” (Antimicrobial Agents and Chemotherapy, 2021).

≈ marks a conversion by molar mass, not a printed value.

Series [1] has as its system M. abscessus subsp. abscessus M9. Briefly: MIC assay in 96-well plate format. The conditions noted are these: Mycobacteroides abscessus; M. abscessus subsp. abscessus M9, clinical isolate. Format: cell-based.
Series [2] relates to M. abscessus subsp. bolletii M232. Briefly: MIC assay in 96-well plate format. Type of series: cell-based. As to conditions: Mycobacteroides abscessus; M. abscessus subsp. bolletii M232, clinical isolate.
The next series concerns M. abscessus Bamboo. Format: cell-based.
A short description of the next series: Stability in microsomes. Format: in vitro ADME. The protocol: Intrinsic clearance (CLi) values were determined in mouse and human liver microsomes. Test compounds (final concentration 0.5 μM) were incubated at 37°C for 30 min in 50 mM potassium phosphate buffer (pH 7.4) containing 0.5 mg microsomal protein/ml. The reaction was started by addition of cofactor NADPH. At 0, 5, and 20 min, an aliquot (90 μl) was taken, quenched with acetonitrile-methanol containing an appropriate internal standard, centrifuged, and analyzed by liquid chromatography-tandem mass spectrometry (LC-MS/MS). The intrinsic clearance (CLi) was determined using the following equation: CLi = k(ml of incubation/mg microsomal protein) × (mg microsomal protein/g liver)where k is the turnover rate constant of the ln(% remaining compound) versus time regression and mg microsomal protein/g liver is 52.5 for both mouse and human.

For series [3] the following is noted: TB efficacy studies; stated as known, no reference given; cited from earlier work.

One may read the MIC as the lowest concentration found to suppress growth. A low value points to inhibition by little substance. As for `CC(C)(O)COc1ccc(Br)c2c1B(O)O[C@@H]2CN` [EC/11770], the MIC amounted to 0.49 µM (≈ 0.162 µg/mL) in series [1] and 0.67 µM (≈ 0.221 µg/mL) in series [2]. Besides, in the series with M. abscessus Bamboo, the frequency of resistance is listed as 3.9 × 10^−8 /CFU. The “Human in vitro CLint” value in “Stability in microsomes” (human hepatic microsomes) is <0.5 <0.5 ml/min/g tissue. Besides, the “Mouse in vitro CLint” value in “Stability in microsomes” (mouse hepatic microsomes) is reported as <0.5 <0.5 ml/min/g tissue. Further, the tolerated dose entry in series [3] is recorded as “up to 100 mg/kg”.
